# Laboratory results as given in PMC6385203, “Mutations in the palm domain disrupt modulation of acid-sensing ion channel 1a currents by neuropeptides” (Scientific Reports, 2019).
# Peptide text beside a SMILES is read from it.
# Molecular target: T1, WT ASIC1a (Homo sapiens, UniProt P78348)
# T1 construct: expressed in transfected cells; host or cells: Xenopus laevis oocytes injected with cRNA
# T1 sequence (P78348 1-528): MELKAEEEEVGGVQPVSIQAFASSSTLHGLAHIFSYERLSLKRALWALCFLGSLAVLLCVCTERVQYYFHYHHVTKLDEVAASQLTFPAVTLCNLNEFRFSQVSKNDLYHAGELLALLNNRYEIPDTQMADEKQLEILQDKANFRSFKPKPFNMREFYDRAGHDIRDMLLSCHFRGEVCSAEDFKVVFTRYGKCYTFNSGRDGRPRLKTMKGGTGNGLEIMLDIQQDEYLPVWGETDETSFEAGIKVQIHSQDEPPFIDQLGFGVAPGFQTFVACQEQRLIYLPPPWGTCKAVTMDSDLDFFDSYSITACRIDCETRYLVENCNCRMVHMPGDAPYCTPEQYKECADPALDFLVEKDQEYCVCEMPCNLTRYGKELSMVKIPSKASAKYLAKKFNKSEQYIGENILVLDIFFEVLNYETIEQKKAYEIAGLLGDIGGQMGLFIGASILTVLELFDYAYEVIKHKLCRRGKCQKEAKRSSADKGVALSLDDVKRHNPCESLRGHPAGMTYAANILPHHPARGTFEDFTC
# Experiment: Time course of appearance of Isust (association), WT
# Assay type: cell-based
# Conditions: pH 7.4, 50 μM FRRFa pre-applied for different times at pH7.4, n = 4, mean ± SEM, read-out: association rate constant kon
# Experimental: ASIC1a function was measured by two-electrode voltage-clamp after recombinant expression in Xenopus oocytes. The channels were activated by a pH5 stimulation solution from a conditioning solution of pH7.4. […] We measured the rate of FRRFa unbinding, as the disappearance of the sustained current after a 50-s incubation with 50 μM FRRFa, as 0.025 ± 0.005 s^−1 (n = 8, Fig. 2b). […] To determine the kinetics of FRRFa association on ASIC1a, we pre-applied the peptide at a concentration of 50 μM for different time periods in the conditioning solution and measured the sustained current fraction.
# Figure 2 FRRFa modulation of ASIC1a currents is only partially affected by acidic pocket mutations. (a) FRRFa concentration-response curve. Top, representative current traces. Bottom, Isust/Ipeak ratio induced by pH5 as a function of the FRRFa concentration (pre-applied during 45–50 s and present in pH5 solution), n = 7–11. (b) Time course of disappearance of the FRRFa-induced Isust. FRRFa at 50 μM was applied for 45 s, and current was measured once every minute during washout with FRRFa-free solution. Exponential fit shown as solid line (n = 4, error bars are smaller than the symbols). (c) Time course of appearance of Isust. Oocytes were exposed for various durations to 50 μM FRRFa in the pH7.4 conditioning solution, before activation of ASIC currents with pH5, including 50 μM FRRFa. […]
smiles,measurement,value
"N=C(N)NCCC[C@H](NC(=O)[C@H](CCCNC(=N)N)NC(=O)[C@@H](N)Cc1ccccc1)C(=O)N[C@@H](Cc1ccccc1)C(N)=O [FRRFa, Phe-Arg-Arg-Phe-amide] (H-FRRF-NH2)",kon,162 ± 84 M⁻¹ s⁻¹
